Measured values as given in article PMC6270026, “Antibacterial and Herbicidal Activity of Ring-Substituted 2-Hydroxynaphthalene-1-carboxanilides” (Molecules, 2013).
Converted amounts (≈) assume the structure as drawn. Read-outs that look alike come from different tables or passages of the source.

Key:
[1] = design: method as in PMID 23884130; conditions: 3-hydroxynaphthalene-2-carboxanilide series; cited from earlier work
[2] = test system: Mycobacterium marinum CAMP 5644; test: In vitro antimycobacterial evaluation (broth dilution MIC); type: cell-based; conditions: for MIC: Mycobacterium marinum, CAMP5644, 504 h, M. marinum CAMP 5644, 21 days, 28 °C
[3] = test system: M. smegmatis ATCC 700084; test: as above; type: cell-based, Mycobacterium smegmatis; conditions: Mycolicibacterium smegmatis, ATCC700084, 72 h; M. smegmatis ATCC 700084, 3 days, 37 °C
[4] = test system: spinach chloroplasts (photosystem II); test: Chlorophyll a and aromatic amino acids fluorescence in spinach chloroplasts; type: biochemical, Spinacia oleracea L.
Method: The fluorescence emission spectra of chlorophyll a (Chla) and aromatic amino acids (AAA) in spinach chloroplasts were recorded on fluorescence spectrophotometer F-2000 (Hitachi, Tokyo, Japan) using excitation wavelength λex = 436 nm for monitoring fluorescence of Chla and λex = 275 nm for monitoring AAA fluorescence, excitation slit 20 nm and emission slit 10 nm. The samples were kept in the dark for 2 min before measuring. The phosphate buffer used for dilution of the chloroplast suspension was the same as described above. Due to low aqueous solubility the compounds were added to chloroplast suspension in DMSO solution. The DMSO concentration in all samples was the same as in the control (10%). The chlorophyll concentration in chloroplast suspension was 10 mg/L.

[5] = Lipophilicity determination by RP-HPLC (capacity factor log k); type: physicochemical; conditions: isocratic, MeOH 60%/H2O 40%, C18
Method: A HPLC system Agilent 1200 equipped with DAD detector (Agilent, Santa Clara, CA, USA) was used. A chromatographic column Symmetry® C18 5 μm, 4.6 × 250 mm, Part No. WAT054275, (Waters Corp., Milford, MA, USA) was used. The HPLC separation process was monitored and evaluated by EZChrom Elite software ver. 3.3.2 (Agilent). Isocratic elution by a mixture of MeOH p.a. (60%) and H2O-HPLC Mili-Q grade (40%) as a mobile phase was used. The total flow of the column was 1.0 mL/min, injection 20 μL, column temperature 40 °C and sample temperature 10 °C. The detection wavelength 210 nm was chosen. The KI methanolic solution was used for the dead time (tD) determination. Retention times (tR) were measured in minutes. The capacity factors k were calculated according to formula k = (tR − tD)/tD, where tR is the retention time of the solute, whereas tD denotes the dead time obtained using an unretained analyte. Log k, calculated from the capacity factor k, is used as the lipophilicity index converted to log P scale.

[6] = test system: photosynthetic electron transport (PET) in spinach chloroplasts; test: Inhibition of photosynthetic electron transport (PET) in spinach chloroplasts; type: biochemical, Spinacia oleracea L.; conditions: DCPIP photoreduction
Method: Chloroplasts were prepared from spinach (Spinacia oleracea L.) according to Masarovicova and Kralova. The inhibition of photosynthetic electron transport (PET) in spinach chloroplasts was determined spectrophotometrically (Genesys 6, Thermo Electron Scientific Instruments, Madison, WI, USA), using an artificial electron acceptor 2,6-dichlorophenol-indophenol (DCPIP) according to Kralova et al., and the rate of photosynthetic electron transport was monitored as a photoreduction of DCPIP. The measurements were carried out in phosphate buffer (0.02 mol/L, pH 7.2) containing sucrose (0.4 mol/L), MgCl2 (0.005 mol/L) and NaCl (0.015 mol/L). The chlorophyll content was 30 mg/L in these experiments and the samples were irradiated (~100 W/m^2 with 10 cm distance) with a halogen lamp (250 W) using a 4 cm water filter to prevent warming of the samples (suspension temperature 22 °C). The studied compounds were dissolved in DMSO due to their limited water solubility. […] The inhibitory efficiency of the studied compounds was expressed by IC50 values, i.e., by molar concentration of the compounds causing 50% decrease in the oxygen evolution rate relative to the untreated control.

[7] = test system: human monocytic leukemia THP-1 cells; test: In vitro cytotoxicity assay (LDH); type: cell-based; conditions: treatment with 20 µmol/L, 24 h
Method: Human monocytic leukemia THP-1 cells were obtained from the European Collection of Cell Cultures (ECACC, Salisbury, UK; Methods of characterization: DNA Fingerprinting (Multilocus probes) and isoenzyme analysis). These cells were routinely cultured in RPMI 1640 (Lonza, Verviers, Belgium) medium supplemented with 10% fetal bovine serum (FBS, Sigma-Aldrich), 2% L-glutamine, 1% penicillin and streptomycin (Lonza, Verviers, Belgium) at 37 °C with 5% CO2. Cells were passaged at approximately 1 week intervals. Cells were routinely tested for the absence of mycoplasma (Hoechst 33258 staining method). The tested compounds were dissolved in DMSO (Sigma-Aldrich) and added in five increasing concentrations to the cell suspension in the culture medium. The maximum concentration of DMSO in the assays never exceeded 0.1%. Subsequently, the cells were incubated for 24 h at 37 °C with 5% CO2 to various compound concentrations ranging from 0.37 to 20 μmol/L in RPMI 1640 medium. Cell toxicity was determined using a Cytotoxicity Detection Kit^PLUS Lactate dehydrogenase (LDH) assay kit (Roche Diagnostics, Mannheim, Germany) according to the manufacturer’s instructions, as described previously. […] All data were evaluated using GraphPad Prism 5.00 software (GraphPad Software, San Diego, CA, USA).

[8] = test system: M. kansasii DSM 44162; test: In vitro antimycobacterial evaluation (broth dilution MIC); type: cell-based; conditions: Mycobacterium kansasii, DSM44162, 168 h; M. kansasii DSM 44162, 7 days, 37 °C
[9] = test system: Mycobacterium avium subsp. paratuberculosis (CIT03); test: In vitro antimycobacterial evaluation (alamarBlue MIC); type: cell-based; conditions: 264 h, M. avium paratuberculosis CIT03, 11 days, 37 °C
Method: A well characterised clinical isolate of Mycobacterium avium subsp. paratuberculosis (CIT03) was grown in Middlebrook broth (MB), supplemented with Oleic-Albumin-Dextrose-Catalase supplement (OADC, Becton, Dickinson & Comp., Franklin Lakes, NJ, USA) and mycobactin J (2 µg/mL). Identification of this isolate was performed using biochemical and molecular protocols. At log phase growth, a culture sample (10 mL) was centrifuged at 15,000 rpm/20 min using a bench top centrifuge (Model CR 4-12, Jouan Inc., Winchester, VA, USA). Following removal of the supernatant, the pellet was washed in fresh Middlebrook 7H9GC broth and re-suspended in fresh supplemented MB (10 mL). The turbidity was adjusted to match McFarland standard No. 1 (3 × 10^8 cfu) with MB broth. A further 1:20 dilution of the culture was then performed in MB broth. The antimicrobial susceptibility of the mycobacterial species was investigated in a 96-well plate format. In these experiments, sterile deionised water (300 µL) was added to all outer-perimeter wells of the plates to minimize evaporation of the medium in the test wells during incubation. Each evaluated compound (100 µL) was incubated with each of the mycobacterial species (100 µL). Dilutions of each compound were prepared in duplicate. For all synthesized compounds, final concentrations ranged from 1,000 µg/mL to 8 µg/mL. All compounds were prepared in DMSO and subsequent dilutions were made in supplemented MB. The plates were sealed with parafilm and incubated at 37 °C, for 11 days in the case of M. avium paratuberculosis. Following incubation, a 10% addition of alamarBlue (AbD Serotec, Kidlington, UK) was mixed into each well and readings at 570 nm and 600 nm were taken, initially for background subtraction and subsequently after 24 h re-incubation. The background subtraction is necessary for strongly coloured compounds, where the colour may interfere with the interpretation of any colour change. For non-interfering compounds, a blue colour in the well was interpreted as an absence of growth and a pink colour was scored as growth. The minimum inhibitory concentrations (MICs) were initially defined as the lowest concentration which prevented a visual colour change from blue to pink.
The MICs were defined as the lowest concentration of the compound at which no visible bacterial growth was observed. The MIC value is routinely and widely used in bacterial assays and is a standard detection limit according to the Clinical and Laboratory Standards Institute (CLSI). Isoniazid (Sigma-Aldrich) was used as reference antimycobacterial drug.

[10] = test system: methicillin-resistant Staphylococcus aureus SA 3202; test: In vitro antibacterial susceptibility testing (broth dilution MIC); type: cell-based; conditions: MRSA, clinical isolate SA 3202, 24 h, 37 °C, read-out: MIC MRSA 3202
Method: (§1) The synthesized compounds were evaluated for in vitro antibacterial activity against representatives of multidrug-resistant bacteria, clinical isolates of methicillin-resistant Staphylococcus aureus (MRSA) 63718, SA 630 and SA 3202 that were obtained from the National Institute of Public Health, Prague, Czech Republic. Staphylococcus aureus ATCC 29213 was used as a reference and quality control strain. Ampicillin (Sigma-Aldrich) was used as the standard. Prior to testing, each strain was passaged onto nutrient agar (Oxoid, Hampshire, UK) with 5% of bovine blood, and bacterial inocula were prepared by suspending a small portion of bacterial colony in sterile phosphate buffered saline (pH 7.2–7.3). The cell density was adjusted to 0.5 McFarland units using a densitometer (Densi-La-Meter, LIAP, Riga, Latvia). The final inoculum was made by 1:20 dilution of the suspension with the Mueller-Hinton broth (MH broth). […] The final concentrations of the evaluated compounds ranging from 256 μg/mL to 0.008 μg/mL. The broth dilution micro-method modified according to NCCLS guidelines in MH broth was used to determine the minimum inhibitory concentration (MIC). Drug-free controls, sterility controls and controls consisted of MH broth and DMSO alone were included. The determination of results was performed visually after 24 h of static incubation in the darkness at 37 °C in an aerobic atmosphere. The MICs were defined as the lowest concentration of the compound at which no visible bacterial growth was observed.

[11] = test system: methicillin-resistant Staphylococcus aureus SA 630; test: as above; type: cell-based; conditions: MRSA, clinical isolate SA 630, 24 h, 37 °C
Method: as §1

[12] = test system: Staphylococcus aureus ATCC 29213; test: as above; type: cell-based; conditions: ATCC29213; Staphylococcus aureus ATCC 29213, 24 h, 37 °C
Method: as §1

[13] = test system: methicillin-resistant Staphylococcus aureus (MRSA) 63718; test: as above; type: cell-based; conditions: clinical isolate MRSA 63718, 24 h, 37 °C
Method: as §1

Row | Compound | log k [1] | MIC [2] [µM] | MIC [3] [µM] | aromatic amino acids (AAA) fluorescence at 334 nm ([4]; c = 0.012-0.117 mmol/L, λex 275 nm) | chlorophyll a fluorescence emission band at 686 nm ([4]; c = 0.059-0.468 mmol/L, λex 436 nm) | log k [5] | IC50 [6] [µM] | lethal effect on THP-1 cells [7] | MIC [8] [µM] | MIC [9] [µM] | MIC [10] [µM] | MIC [11] [µM] | MIC [12] [µM] | MIC [13] [µM] | fold higher activity against M. marinum than isoniazid ([2]; ratio of MIC to isoniazid)
1 | O=C(c1cc(O)cc2ccccc12)N(c1ccccc1)c1ccccc1 [3-hydroxy-N-phenylnaphthalene-1-carboxanilide] | 0.6310 | – | – | – | – | – | – | – | – | – | – | – | – | – | –
2 | O=C(Nc1ccccc1)c1c(O)ccc2ccccc12 [Compound 1, 2-Hydroxy-N-phenylnaphthalene-1-carboxamide] | – | 60.7 (≈ 16 µg/mL) | 486 (≈ 128 µg/mL) | strong decline | decreased intensity | 1.3016 | 28.9 | did not lead to significant lethal effects | 15.2 (≈ 4 µg/mL) | 950 (≈ 250 µg/mL) | – | – | – | – | –
3 | O=C(Nc1ccccc1Br)c1c(O)ccc2ccccc12 [Compound 6a, N-(2-bromophenyl)-2-hydroxynaphthalene-1-carboxamide] | – | > 748 | > 748 | – | – | 0.9509 | 52.2 | – | 93.5 (≈ 32 µg/mL) | 731 (≈ 250 µg/mL) | > 748 | > 748 | > 748 | > 748 | –
4 | O=C(Nc1cccc(Br)c1)c1c(O)ccc2ccccc12 [Compound 6b, N-(3-bromophenyl)-2-hydroxynaphthalene-1-carboxamide] | – | > 748 | > 748 | – | – | 0.8595 | 61.1 | – | 46.7 (≈ 16 µg/mL) | 731 (≈ 250 µg/mL) | > 748 | > 748 | > 748 | > 748 | –
5 | O=C(Nc1ccc(Br)cc1)c1c(O)ccc2ccccc12 [Compound 6c, N-(4-bromophenyl)-2-hydroxynaphthalene-1-carboxamide] | – | 187 (≈ 64 µg/mL) | 187 (≈ 64 µg/mL) | – | – | 0.8790 | 102 | – | 93.5 (≈ 32 µg/mL) | 175 (≈ 59.9 µg/mL) | 94.1 (≈ 32.2 µg/mL) | 47 (≈ 16.1 µg/mL) | 47 (≈ 16.1 µg/mL) | 187 (≈ 64 µg/mL) | –
6 | O=C(Nc1ccc(C(F)(F)F)cc1)c1c(O)ccc2ccccc12 [Compound 7c, 2-Hydroxy-N-(4-trifluoromethylphenyl)naphthalene-1-carboxamide] | – | > 748 | > 748 | – | – | 0.9994 | 29 | – | 23.3 (≈ 7.72 µg/mL) | 731 (≈ 242 µg/mL) | 47 (≈ 15.6 µg/mL) | 94 (≈ 31.1 µg/mL) | > 748 | 94 (≈ 31.1 µg/mL) | –
7 | O=C(Nc1ccccc1[N+](=O)[O-])c1c(O)ccc2ccccc12 [Compound 8a, 2-Hydroxy-N-(2-nitrophenyl)naphthalene-1-carboxamide] | – | 104 (≈ 32.1 µg/mL) | – | – | – | 0.8501 | 121 | did not lead to significant lethal effects | 51.9 (≈ 16 µg/mL) | 195 (≈ 60.1 µg/mL) | 52 (≈ 16 µg/mL) | 104 (≈ 32.1 µg/mL) | – | – | –
8 | O=C(Nc1cccc([N+](=O)[O-])c1)c1c(O)ccc2ccccc12 [Compound 8b, 2-Hydroxy-N-(3-nitrophenyl)naphthalene-1-carboxamide] | – | ~52 (≈ 16 µg/mL) | – | – | – | 0.9187 | 86.4 | did not lead to significant lethal effects | 104 (≈ 32.1 µg/mL) | 405 (≈ 125 µg/mL) | – | – | – | – | about 9 fold
